# Laboratory results published in ChEMBL document CHEMBL1201862, “PubChem BioAssay data set” (2004).
# The source made the active and inactive calls.
# Legend:
# [1] = biological target: FAD-linked sulfhydryl oxidase ALR (Homo sapiens, UniProt P55789); experiment: inhibitors of human ALR sulfhydryl oxidase, dose response, biochemical, H2O2 detection, luminescence, cherry-pick (AID 493248)
# [2] = P. falciparum Dd2 growth inhibitors, dose response, SYBR Green, cherry-picked samples (AID 1159567); type: functional, cell-based
# [3] = biological target: T1, Carboxy-terminal domain RNA polymerase II polypeptide A small phosphatase 1 (Homo sapiens, UniProt Q9GZU7); experiment: inhibitors of CTDSP1, concentration-response testing, biochemical assay, absorbance-based, actives from ultra-high-throughput screening (AID 540297); type: functional
# T1 sequence (Q9GZU7 whole entry): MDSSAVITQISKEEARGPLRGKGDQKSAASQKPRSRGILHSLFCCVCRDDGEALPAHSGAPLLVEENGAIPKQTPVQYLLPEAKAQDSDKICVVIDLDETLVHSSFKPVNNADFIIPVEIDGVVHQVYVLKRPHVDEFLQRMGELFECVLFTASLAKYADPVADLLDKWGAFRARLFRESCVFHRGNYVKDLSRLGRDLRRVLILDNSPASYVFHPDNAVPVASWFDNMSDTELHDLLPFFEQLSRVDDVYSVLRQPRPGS
# [4] = biological target: T2, Protein skinhead-1 (Caenorhabditis elegans, UniProt P34707); type: functional
# T2 sequence (P34707 whole entry): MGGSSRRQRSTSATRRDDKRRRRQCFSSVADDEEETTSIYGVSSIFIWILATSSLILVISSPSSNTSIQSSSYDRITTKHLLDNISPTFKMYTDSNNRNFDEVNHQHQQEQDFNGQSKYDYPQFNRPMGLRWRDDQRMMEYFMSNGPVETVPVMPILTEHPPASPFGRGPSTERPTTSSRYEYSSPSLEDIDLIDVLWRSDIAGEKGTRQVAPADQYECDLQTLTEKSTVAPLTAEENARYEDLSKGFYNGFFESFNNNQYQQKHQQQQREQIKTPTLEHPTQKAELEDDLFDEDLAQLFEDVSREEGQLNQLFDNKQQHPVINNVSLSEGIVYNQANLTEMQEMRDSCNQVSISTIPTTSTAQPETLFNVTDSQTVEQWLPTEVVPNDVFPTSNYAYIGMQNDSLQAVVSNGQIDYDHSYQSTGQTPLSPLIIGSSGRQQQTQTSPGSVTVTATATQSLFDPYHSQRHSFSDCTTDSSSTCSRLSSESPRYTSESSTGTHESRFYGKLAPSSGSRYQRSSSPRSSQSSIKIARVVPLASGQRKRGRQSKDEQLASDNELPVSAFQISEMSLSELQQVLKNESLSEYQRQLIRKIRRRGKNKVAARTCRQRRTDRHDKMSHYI
# [5] = biological target: T3, Calpain-2 catalytic subunit (Sus scrofa, UniProt P43367); experiment: pig calpain II inhibitor potency, dose response, biochemical, fluorogenic peptide substrate (AID 1420); type: functional
# T3 sequence (P43367 whole entry): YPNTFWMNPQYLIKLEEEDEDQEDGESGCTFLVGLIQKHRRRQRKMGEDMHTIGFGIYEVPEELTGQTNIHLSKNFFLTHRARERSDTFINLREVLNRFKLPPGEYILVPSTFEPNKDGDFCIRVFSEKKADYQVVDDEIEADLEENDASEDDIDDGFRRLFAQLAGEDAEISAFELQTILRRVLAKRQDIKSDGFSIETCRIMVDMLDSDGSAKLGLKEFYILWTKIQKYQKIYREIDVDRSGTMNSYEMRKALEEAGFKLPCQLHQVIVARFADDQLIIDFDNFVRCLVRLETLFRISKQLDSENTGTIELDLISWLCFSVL
# [6] = inhibitors of HIV Env-driven cell fusion, dose response, cherry-pick (AID 652057); type: functional, cell-based
# [7] = inhibitors of clade B AD8 Env fusion, dose response, cell-based, cherry-pick (AID 652062); type: functional;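 further: luciferase signal from cell-cell fusion driven by HIV-1 clade B AD8 Env; potency is for inhibitors of fusion seen as a drop in luminescence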
# [8] = biological target: Cytochrome P450 2C9 (Homo sapiens, UniProt P11712)
# Sequence of Cytochrome P450 2C9 (P11712 whole entry): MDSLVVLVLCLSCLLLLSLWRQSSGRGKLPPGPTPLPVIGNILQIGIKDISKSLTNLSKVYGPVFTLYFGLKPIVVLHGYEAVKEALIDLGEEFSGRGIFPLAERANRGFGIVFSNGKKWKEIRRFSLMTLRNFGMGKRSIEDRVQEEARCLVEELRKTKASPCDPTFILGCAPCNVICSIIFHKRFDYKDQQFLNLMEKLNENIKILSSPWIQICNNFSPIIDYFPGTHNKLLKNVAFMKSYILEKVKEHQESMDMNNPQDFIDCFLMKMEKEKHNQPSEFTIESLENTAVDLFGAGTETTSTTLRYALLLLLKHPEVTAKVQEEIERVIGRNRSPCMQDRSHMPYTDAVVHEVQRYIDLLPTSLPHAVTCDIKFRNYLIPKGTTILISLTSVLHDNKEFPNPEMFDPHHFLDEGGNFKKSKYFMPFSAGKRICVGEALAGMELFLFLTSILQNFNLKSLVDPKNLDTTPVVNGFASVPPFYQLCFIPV
# [9] = biological target: T4, Zinc finger protein mex-5 (Caenorhabditis elegans, UniProt Q9XUB2); experiment: MEX-5/TCR-2 RNA interaction inhibitors, dose response, biochemical, C. elegans, fluorescence polarization (AID 1960)
# T4 sequence (Q9XUB2 whole entry): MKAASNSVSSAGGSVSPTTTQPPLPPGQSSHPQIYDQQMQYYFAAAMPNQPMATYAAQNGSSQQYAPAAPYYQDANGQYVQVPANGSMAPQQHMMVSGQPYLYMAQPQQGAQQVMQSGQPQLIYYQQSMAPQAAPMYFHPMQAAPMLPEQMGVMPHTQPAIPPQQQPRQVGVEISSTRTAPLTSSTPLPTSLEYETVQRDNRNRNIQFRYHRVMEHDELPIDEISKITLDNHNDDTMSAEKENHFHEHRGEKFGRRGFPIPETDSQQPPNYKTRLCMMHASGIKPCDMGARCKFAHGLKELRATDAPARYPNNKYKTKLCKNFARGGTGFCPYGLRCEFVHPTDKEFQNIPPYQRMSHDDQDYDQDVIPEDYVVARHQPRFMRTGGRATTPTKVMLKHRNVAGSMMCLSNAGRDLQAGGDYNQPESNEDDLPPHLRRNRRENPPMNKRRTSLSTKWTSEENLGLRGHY
# [10] = biological target: Large T antigen (Simian virus 40, UniProt P03070); type: functional, Betapolyomavirus macacae;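 further: Confirmatory-stage PubChem screen for compounds that inhibit SV40 T antigen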
# Sequence of Large T antigen (P03070 whole entry, the tested form may be a part): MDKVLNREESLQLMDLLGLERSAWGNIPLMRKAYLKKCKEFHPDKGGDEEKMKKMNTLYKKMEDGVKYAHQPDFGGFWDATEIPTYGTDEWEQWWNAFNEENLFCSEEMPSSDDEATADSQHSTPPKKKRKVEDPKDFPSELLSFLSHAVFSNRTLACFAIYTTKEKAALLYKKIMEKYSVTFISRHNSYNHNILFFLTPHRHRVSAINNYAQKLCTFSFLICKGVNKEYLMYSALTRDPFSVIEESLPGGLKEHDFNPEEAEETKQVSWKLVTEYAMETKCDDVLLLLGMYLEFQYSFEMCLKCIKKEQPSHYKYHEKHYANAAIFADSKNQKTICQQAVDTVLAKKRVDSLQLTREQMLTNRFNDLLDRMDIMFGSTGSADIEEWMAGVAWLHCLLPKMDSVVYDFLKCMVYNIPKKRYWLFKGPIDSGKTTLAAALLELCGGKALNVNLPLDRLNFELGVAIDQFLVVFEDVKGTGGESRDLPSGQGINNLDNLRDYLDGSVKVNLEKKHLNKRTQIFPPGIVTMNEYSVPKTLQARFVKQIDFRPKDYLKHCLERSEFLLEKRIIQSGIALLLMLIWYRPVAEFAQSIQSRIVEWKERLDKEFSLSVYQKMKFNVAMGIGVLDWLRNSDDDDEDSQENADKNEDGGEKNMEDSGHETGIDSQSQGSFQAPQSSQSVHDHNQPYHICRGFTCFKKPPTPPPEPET
# [11] = biological target: T5, RNA-binding protein pos-1 (Caenorhabditis elegans, UniProt G5EF15); experiment: inhibitors of POS-1/mex-3 RNA binding, dose response, biochemical, fluorescence polarization (AID 1964);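 further: purified POS-1 fused to maltose binding protein made in E. coli; potency of compounds blocking POS-1 binding to fluorescent RNA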
# T5 sequence (G5EF15 whole entry): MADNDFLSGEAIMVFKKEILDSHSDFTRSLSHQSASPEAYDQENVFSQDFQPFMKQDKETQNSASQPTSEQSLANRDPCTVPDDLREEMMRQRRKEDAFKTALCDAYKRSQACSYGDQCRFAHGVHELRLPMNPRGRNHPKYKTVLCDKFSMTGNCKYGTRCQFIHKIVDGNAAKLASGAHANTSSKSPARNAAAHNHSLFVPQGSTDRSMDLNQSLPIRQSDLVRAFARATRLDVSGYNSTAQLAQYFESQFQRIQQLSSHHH
# [12] = biological target: Induced myeloid leukemia cell differentiation protein Mcl-1 (Homo sapiens, UniProt Q07820); type: functional
# Sequence of Induced myeloid leukemia cell differentiation protein Mcl-1 (Q07820 whole entry, the tested form may be a part): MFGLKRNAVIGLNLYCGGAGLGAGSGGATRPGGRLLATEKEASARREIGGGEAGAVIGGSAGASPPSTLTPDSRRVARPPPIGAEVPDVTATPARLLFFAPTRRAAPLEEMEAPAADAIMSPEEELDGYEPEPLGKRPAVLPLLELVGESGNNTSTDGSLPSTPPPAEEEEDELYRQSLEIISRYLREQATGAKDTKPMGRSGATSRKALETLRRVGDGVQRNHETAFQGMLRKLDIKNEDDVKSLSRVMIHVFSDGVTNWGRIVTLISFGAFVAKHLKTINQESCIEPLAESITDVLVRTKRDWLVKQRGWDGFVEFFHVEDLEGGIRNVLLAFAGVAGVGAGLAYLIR
# [13] = ZM109 Env clade C HIV-1 fusion inhibitors, dose response, HeLa effector, CEM target cells, luciferase, cherry-pick (AID 652058); type: functional, cell-based
# Sequence of FAD-linked sulfhydryl oxidase ALR (P55789 whole entry): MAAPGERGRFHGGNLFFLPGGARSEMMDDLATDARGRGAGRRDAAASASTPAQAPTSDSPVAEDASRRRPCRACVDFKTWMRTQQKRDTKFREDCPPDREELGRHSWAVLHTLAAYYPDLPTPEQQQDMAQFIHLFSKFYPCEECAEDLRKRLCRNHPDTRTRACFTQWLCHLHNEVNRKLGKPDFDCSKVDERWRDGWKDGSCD
structure (smiles),measurement,setting,value
O=[N+]([O-])c1ccc(CSC2=NCCS2)cc1,AC50,[1],5.31 µM (active)
COC(=O)c1ccc(NC(=O)c2cccc(Cl)c2)o1,AC50,[1],20.9 µM (active)
CC(C)(C)[S@@+]([O-])N1Cc2cc(C(=O)N3CCc4ccccc4C3)nc(-c3cccc(-c4ccncc4)c3)c2[C@H]1CCO,AC50,[2],5.87 µM (active)
O=C(OCc1ccccc1)Oc1cncc(C(=O)O)c1,AC50,[1],0.072 µM (active)
C#Cc1ccc([C@@H]2C=C(C(=O)O)O[C@H](OCC)[C@H]2CCCO)cc1,IC50,[3],4.59 µM (active)
COc1ccc(OCCN(C)C(=O)c2cccc(S(=O)(=O)N(C)c3ccccc3)c2)cc1,IC50,[4],> 100 µM (inactive)
COC(=O)c1cc(-c2cccc(OC)c2)[nH]n1,IC50,[4],> 100 µM (inactive)
Fc1ccc(CSc2nnc(-c3ccco3)o2)cc1,IC50,[4],30.1 µM (active)
CCOC(=O)/C=C1\CC(C(=O)OCC)Oc2c(OC)cccc21 (stereo not drawn),IC50,[3],16.7 µM (active)
CSc1cccc(NC(=O)CSc2ccc(Cl)cc2)c1,IC50,[5],8.93 µM (not active)
O=C(COC(=O)CC12CC3CC(CC(C3)C1)C2)Nc1cccnc1Cl,IC50,[5],> 50 µM (not active)
Cn1c(/C(C#N)=C(\O)c2ccc([N+](=O)[O-])s2)nc2ccccc21,IC50,[4],> 100 µM (inactive)
O=C(NCCCN1CCc2ccccc2C1)Nc1ccc(Cl)cc1,AC50,[6],3.52 µM (active)
same,AC50,[7],39.9 µM (active)
same,AC50,[8],14.1 µM (inconclusive)
CN(C)S(=O)(=O)NC(c1ccccc1)c1ccccc1,IC50,[4],> 100 µM (inactive)
CCN(CC)c1ccc(N/C=C2\C(=O)NC(=O)N(c3cc(OC)ccc3OC)C2=O)cc1,EC50,[9],> 300 µM (not active)
same,IC50,[10],19.8 µM (active)
same,EC50,[11],> 300 µM (not active)
COCCN(C(=O)COC(=O)Cc1coc2cc3c(cc12)CCC3)c1c(N)n(Cc2ccccc2)c(=O)[nH]c1=O,IC50,[3],6.23 µM (active)
C=CCNC(=O)c1ccc(Cn2c(=S)[nH]c3cc4c(cc3c2=O)OCO4)cc1,IC50,[3],8.27 µM (active)
COc1cc(/C=N\Nc2nc(-c3cccs3)c(NC(C)=O)s2)ccc1O,IC50,[12],2.72 µM (active)
same,IC50,[10],27.8 µM (active)
CCN(CC)c1ccc(/C=N/NC(=O)CNC(=O)c2ccccn2)cc1,AC50,[1],0.91 µM (active)
C[C@H](CO)N1C[C@H](C)[C@H](CN(C)C(=O)Nc2ccc(F)cc2)OCc2ccccc2-c2c(n(C)c3ccccc23)C1=O,AC50,[6],< 0.26 µM (active)
same,AC50,[7],< 0.26 µM (active)
same,AC50,[13],< 260 nM (active)
COc1ccc2c3c(n(C)c2c1)[C@H](CO)N(Cc1ccccc1OC)CC31CN(CC2CCOCC2)C1,AC50,[2],4.81 µM (active)
